pKi: −log10 of the molar value.
Assays:
[1] = target: Carbonic anhydrase 9 (Homo sapiens, UniProt Q16790)
Description: Inhibition of human carbonic anhydrase 9 by stopped-flow CO2 hydrase assay

[2] = target: Carbonic anhydrase 12 (Homo sapiens, UniProt O43570)
Description: Inhibition of human carbonic anhydrase 12 by stopped-flow CO2 hydrase assay

[3] = target: Carbonic anhydrase 2 (Homo sapiens, UniProt P00918); assay: Inhibition of human carbonic anhydrase 2 by stopped-flow CO2 hydrase assay
[4] = target: Carbonic anhydrase 1 (Homo sapiens, UniProt P00915); assay: Inhibition of human carbonic anhydrase 1 by stopped-flow CO2 hydrase assay
Chain of Carbonic anhydrase 1 (P00915 whole entry): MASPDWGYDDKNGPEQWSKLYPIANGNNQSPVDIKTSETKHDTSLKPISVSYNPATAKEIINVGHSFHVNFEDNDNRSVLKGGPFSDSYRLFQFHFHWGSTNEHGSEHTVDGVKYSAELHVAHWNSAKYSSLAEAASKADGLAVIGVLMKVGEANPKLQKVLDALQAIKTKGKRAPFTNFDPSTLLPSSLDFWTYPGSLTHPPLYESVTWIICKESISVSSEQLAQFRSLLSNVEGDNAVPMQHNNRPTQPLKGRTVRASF

Chain of Carbonic anhydrase 12 (O43570 whole entry): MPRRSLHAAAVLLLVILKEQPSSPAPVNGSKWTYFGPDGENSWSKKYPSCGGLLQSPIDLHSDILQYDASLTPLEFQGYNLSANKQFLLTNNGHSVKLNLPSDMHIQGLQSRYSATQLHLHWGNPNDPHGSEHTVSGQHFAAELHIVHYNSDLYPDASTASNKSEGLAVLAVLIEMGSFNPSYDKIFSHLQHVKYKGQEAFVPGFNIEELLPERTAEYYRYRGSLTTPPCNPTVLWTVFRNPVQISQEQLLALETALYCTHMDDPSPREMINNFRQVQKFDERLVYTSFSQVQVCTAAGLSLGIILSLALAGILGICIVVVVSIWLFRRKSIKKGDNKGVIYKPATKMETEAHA

| pKi [1] | pKi [2] | pKi [3] | pKi [4] | Compound |
| --- | --- | --- | --- | --- |
| < 4.30 | 5.75 | < 4.30 | < 4.30 | O=C(CN1C(=O)c2ccccc2S1(=O)=O)c1ccccc1 |
| 6.70 | 7.55 | 7.42 | < 4.30 | CNC(=O)CN1C(=O)c2ccccc2S1(=O)=O |
| 6.64 | 5.54 | 5.74 | < 4.30 | O=C1c2ccccc2S(=O)(=O)N1CC(O)COc1ccc(Cl)cc1 (stereo unspecified) |
| < 4.30 | 7.60 | – | < 4.30 | O=C1c2ccccc2S(=O)(=O)N1Cc1ccccc1Br |
| 6.44 | 7.68 | – | < 4.30 | O=C1c2ccccc2S(=O)(=O)N1Cc1cccc(Br)c1 |
| < 4.30 | 5.60 | < 4.30 | < 4.30 | O=C1c2ccccc2S(=O)(=O)N1Cc1ccccc1F |
| 6.42 | 5.57 | – | < 4.30 | O=C1c2ccccc2S(=O)(=O)N1Cc1cccc(F)c1 |
| < 4.30 | 5.88 | – | < 4.30 | O=C1c2ccccc2S(=O)(=O)N1Cc1c(F)cccc1F |
| 6.41 | 5.56 | < 4.30 | < 4.30 | O=C1c2ccccc2S(=O)(=O)N1Cc1ccc(Cl)c(Cl)c1 |
| < 4.30 | 5.60 | < 4.30 | < 4.30 | O=C1c2ccccc2S(=O)(=O)N1Cc1cccc2ccccc12 |
| < 4.30 | 4.87 | < 4.30 | < 4.30 | O=C1c2ccccc2C(=O)N1CN1C(=O)c2ccccc2S1(=O)=O |
| < 4.30 | 6.01 | < 4.30 | < 4.30 | O=C(CN1C(=O)c2ccccc2S1(=O)=O)c1ccccc1[N+](=O)[O-] |
| < 4.30 | 5.70 | < 4.30 | < 4.30 | O=C(CN1C(=O)c2ccccc2S1(=O)=O)c1cccc([N+](=O)[O-])c1 |
| 6.51 | 7.38 | < 4.30 | < 4.30 | O=C(O)CN1C(=O)c2ccccc2S1(=O)=O |
| < 4.30 | 6.60 | < 4.30 | < 4.30 | O=[N+]([O-])c1ccccc1CNS(=O)(=O)c1ccccc1CO |
| 6.54 | < 4.30 | – | < 4.30 | N#CCCCN1C(=O)c2ccccc2S1(=O)=O |
| < 4.30 | < 4.30 | < 4.30 | < 4.30 | O=S1(=O)N=C(OCc2cccc(Br)c2)c2ccccc21 |
| 6.54 | 6.15 | < 4.30 | < 4.30 | N#CCN1C(=O)c2ccccc2S1(=O)=O |
| 6.68 | 6.24 | – | < 4.30 | C#CCN1C(=O)c2ccccc2S1(=O)=O |
| 6.85 | 7.03 | – | < 4.30 | C=CCN1C(=O)c2ccccc2S1(=O)=O |
| 7.01 | 6.68 | – | < 4.30 | C/C=C/CN1C(=O)c2ccccc2S1(=O)=O |
| 6.48 | 7.12 | – | < 4.30 | CCOC(=O)CN1C(=O)c2ccccc2S1(=O)=O |
| 6.62 | 6.82 | – | < 4.30 | N#Cc1ccc(CN2C(=O)c3ccccc3S2(=O)=O)cc1 |
| 6.82 | 6.36 | – | < 4.30 | CC(=O)CN1C(=O)c2ccccc2S1(=O)=O |
| 6.57 | 6.62 | – | < 4.30 | C/C(CN1C(=O)c2ccccc2S1(=O)=O)=N\O (mixture of isomers) |

| Compound | pKi [1] | pKi [2] | pKi [3] | pKi [4] |
| --- | --- | --- | --- | --- |
| O=C1c2ccccc2S(=O)(=O)N1Cc1ccccc1[N+](=O)[O-] | 7.04 | 7.55 | – | < 4.30 |
| O=C1c2ccccc2S(=O)(=O)N1Cc1cccc([N+](=O)[O-])c1 | – | 7.61 | – | < 4.30 |
| O=C1c2ccccc2S(=O)(=O)N1Cc1cc(-c2ccc([N+](=O)[O-])cc2)no1 | 6.51 | – | < 4.30 | < 4.30 |
